Assay results: patent US9636308B2, “High drug load buprenorphine microspheres and method of producing same” (Oakwood Laboratories LLC, priority 2013, dated 2017)

Assay: Solubility of buprenorphine in solvent systems by visual observation
Source text: DCM was used as the main solvent and BzOH as the co-solvent.

Q: Which results are given for `CO[C@@]12CC[C@@]3(C[C@@H]1[C@](C)(O)C(C)(C)C)[C@H]1Cc4ccc(O)c5c4[C@@]3(CCN1CC1CC1)[C@H]2O5.Cl` [Buprenorphine (salt form), Buprenorphine hydrochloride]?
A: Increase of solubility by addition of BzOH to DCM (DCM:BzOH 2:1 by weight versus DCM alone): ~46 fold; Solubility (solvent DCM with benzyl alcohol co-solvent (33% by weight; 2:1 DCM:BzOH)): 0.083 g/g; Solubility (solvent DCM, no co-solvent): 0.0018 g/g
